# From patent US11285218B2, “Degradation of bromodomain-containing protein 9 (BRD9) by conjugation of BRD9 inhibitors with E3 ligase ligand and methods of use” (Dana-Farber Cancer Institute, Inc., priority 2016, dated 2022)
# Assays:
# Experiment in all cases: BromoScan single-point screen
# Format in all cases: binding
# Details in all cases: percent of protein captured on solid support vs control
# BRD2(1) = target: T1, BRD2(1) (Homo sapiens, UniProt P25440)
# T1 construct: utilizing DNA-tagged bromodomain and immobilized ligand attached to solid support
# Source text: (§1) The BromoScan is an assay that measures the engagement of compounds with bromodomain proteins by utilizing DNA-tagged bromodomain and immobilized ligand attached to solid support. In the control test, DNA-tagged bromodomain binds to the ligand and the bromodomain is captured on the solid support. Compounds that compete for the bromodomain binding location on the ligand will prevent the bromodomain from binding, resulting in less protein captured on the solid support.
# BRD7 = target: T2, BRD7 (Homo sapiens, UniProt Q9NPI1)
# T2 construct: utilizing DNA-tagged bromodomain and immobilized ligand attached to solid support
# Source text: as §1
# SMARCA4 = target: T3, SMARCA4 (Homo sapiens, UniProt P51532)
# T3 construct: utilizing DNA-tagged bromodomain and immobilized ligand attached to solid support
# Source text: as §1
# BRD4(2) = target: T4, BRD4(2) (Homo sapiens, UniProt O60885)
# T4 construct: utilizing DNA-tagged bromodomain and immobilized ligand attached to solid support
# Source text: as §1
# SMARCA2 = target: T5, SMARCA2 (Homo sapiens, UniProt P51531)
# T5 construct: utilizing DNA-tagged bromodomain and immobilized ligand attached to solid support
# Source text: as §1
# BRD1 = target: T6, BRD1 (Homo sapiens, UniProt O95696)
# T6 construct: utilizing DNA-tagged bromodomain and immobilized ligand attached to solid support
# Source text: as §1
# TAF1(2) = target: T7, TAF1(2) (Homo sapiens, UniProt P21675)
# T7 construct: utilizing DNA-tagged bromodomain and immobilized ligand attached to solid support
# Source text: as §1
# WDR9(2) = target: T8, WDR9(2) (Homo sapiens, UniProt Q9NSI6)
# T8 construct: utilizing DNA-tagged bromodomain and immobilized ligand attached to solid support
# Source text: as §1
# TRIM24 (PHD, Bromo.) = target: T9, TRIM24 (PHD, Bromo.) (Homo sapiens, UniProt O15164)
# T9 construct: utilizing DNA-tagged bromodomain and immobilized ligand attached to solid support
# Source text: as §1
# PCAF = target: T10, PCAF (Homo sapiens, UniProt Q92831)
# T10 construct: utilizing DNA-tagged bromodomain and immobilized ligand attached to solid support
# Source text: as §1
# PBRM1(2) = target: T11, PBRM1(2) (Homo sapiens, UniProt Q86U86)
# T11 construct: utilizing DNA-tagged bromodomain and immobilized ligand attached to solid support
# Source text: as §1
# BRDT(1) = target: T12, BRDT(1) (Homo sapiens, UniProt Q58F21)
# T12 construct: utilizing DNA-tagged bromodomain and immobilized ligand attached to solid support
# Source text: as §1
# BRPF3 = target: T13, BRPF3 (Homo sapiens, UniProt Q9ULD4)
# T13 construct: utilizing DNA-tagged bromodomain and immobilized ligand attached to solid support
# Source text: as §1
# EP300 = target: T14, EP300 (Homo sapiens, UniProt Q09472)
# T14 construct: utilizing DNA-tagged bromodomain and immobilized ligand attached to solid support
# Source text: as §1
# PBRM1(5) = target: T15, PBRM1(5) (Homo sapiens, UniProt Q86U86)
# T15 construct: utilizing DNA-tagged bromodomain and immobilized ligand attached to solid support
# Source text: as §1
# ATAD2A = target: T16, ATAD2A (Homo sapiens, UniProt Q6PL18)
# T16 construct: utilizing DNA-tagged bromodomain and immobilized ligand attached to solid support
# Source text: as §1
# CREBBP = target: T17, CREBBP (Homo sapiens, UniProt Q92793)
# T17 construct: utilizing DNA-tagged bromodomain and immobilized ligand attached to solid support
# Source text: as §1
# CECR2 = target: T18, CECR2 (Homo sapiens, UniProt Q9BXF3)
# T18 construct: utilizing DNA-tagged bromodomain and immobilized ligand attached to solid support
# Source text: as §1
# TAF1L(2) = target: T19, TAF1L(2) (Homo sapiens, UniProt Q8IZX4)
# T19 construct: utilizing DNA-tagged bromodomain and immobilized ligand attached to solid support
# Source text: as §1
# BAZ^2B = target: T20, BAZ^2B (Homo sapiens, UniProt Q9UIF8)
# T20 construct: utilizing DNA-tagged bromodomain and immobilized ligand attached to solid support
# Source text: as §1
# BRPF1 = target: T21, BRPF1 (Homo sapiens, UniProt P55201)
# T21 construct: utilizing DNA-tagged bromodomain and immobilized ligand attached to solid support
# Source text: as §1
# BRD9 = target: T22, BRD9 (Homo sapiens, UniProt Q9H8M2)
# T22 construct: utilizing DNA-tagged bromodomain and immobilized ligand attached to solid support
# Source text: as §1
# BAZ^2A = target: T23, BAZ^2A (Homo sapiens, UniProt Q9UIF9)
# T23 construct: utilizing DNA-tagged bromodomain and immobilized ligand attached to solid support
# Source text: as §1
# FALZ = target: T24, FALZ (Homo sapiens, UniProt Q12830)
# T24 construct: utilizing DNA-tagged bromodomain and immobilized ligand attached to solid support
# Source text: as §1
# ATAD2B = target: T25, ATAD2B (Homo sapiens, UniProt Q9ULI0)
# T25 construct: utilizing DNA-tagged bromodomain and immobilized ligand attached to solid support
# Source text: as §1
# BRD3(2) = target: T26, BRD3(2) (Homo sapiens, UniProt Q15059)
# T26 construct: utilizing DNA-tagged bromodomain and immobilized ligand attached to solid support
# Source text: as §1
# BRDT(2) = target: T27, BRDT(2) (Homo sapiens, UniProt Q58F21)
# T27 construct: utilizing DNA-tagged bromodomain and immobilized ligand attached to solid support
# Source text: as §1
# BRD2(2) = target: T28, BRD2(2) (Homo sapiens, UniProt P25440)
# T28 construct: utilizing DNA-tagged bromodomain and immobilized ligand attached to solid support
# Source text: as §1
# GCN5L2 = target: T29, GCN5L2 (Homo sapiens, UniProt Q92830)
# T29 construct: utilizing DNA-tagged bromodomain and immobilized ligand attached to solid support
# Source text: as §1
# BRD4(1) = BRD4(1) (Homo sapiens, UniProt O60885); parameters: utilizing DNA-tagged bromodomain and immobilized ligand attached to solid support
# Source text: as §1
# T6 sequence (O95696 562-666 limits assumed): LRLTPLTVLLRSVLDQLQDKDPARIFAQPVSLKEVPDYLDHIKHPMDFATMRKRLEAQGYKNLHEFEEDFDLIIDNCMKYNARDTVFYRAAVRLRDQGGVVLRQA
# T18 sequence (Q9BXF3 434-538 limits assumed): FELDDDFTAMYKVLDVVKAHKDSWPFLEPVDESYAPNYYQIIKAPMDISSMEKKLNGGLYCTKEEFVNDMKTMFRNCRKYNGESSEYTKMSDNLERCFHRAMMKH
# T13 sequence (Q9ULD4 589-693 limits assumed): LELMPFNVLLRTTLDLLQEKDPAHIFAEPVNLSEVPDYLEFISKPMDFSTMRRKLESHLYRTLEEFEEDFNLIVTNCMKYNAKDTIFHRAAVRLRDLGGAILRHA
# T14 sequence (Q09472 1049-1156 limits assumed): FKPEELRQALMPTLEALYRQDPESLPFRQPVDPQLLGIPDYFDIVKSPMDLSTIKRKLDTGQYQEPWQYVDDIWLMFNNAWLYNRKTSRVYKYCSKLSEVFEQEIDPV
# T7 sequence (P21675 1519-1628 limits assumed): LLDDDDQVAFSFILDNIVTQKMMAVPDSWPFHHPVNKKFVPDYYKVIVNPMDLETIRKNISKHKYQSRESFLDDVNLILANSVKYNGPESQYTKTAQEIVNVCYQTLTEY
# T15 sequence (Q86U86 653-763 limits assumed): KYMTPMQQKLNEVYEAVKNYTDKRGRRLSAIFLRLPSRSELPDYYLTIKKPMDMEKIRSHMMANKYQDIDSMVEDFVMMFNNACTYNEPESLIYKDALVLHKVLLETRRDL
# T11 sequence (Q86U86 177-287 limits assumed): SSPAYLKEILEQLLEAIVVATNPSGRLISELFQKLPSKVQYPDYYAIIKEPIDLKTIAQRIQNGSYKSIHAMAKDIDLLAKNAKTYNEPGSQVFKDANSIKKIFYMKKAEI
# T3 sequence (P51532 1453-1564 limits assumed): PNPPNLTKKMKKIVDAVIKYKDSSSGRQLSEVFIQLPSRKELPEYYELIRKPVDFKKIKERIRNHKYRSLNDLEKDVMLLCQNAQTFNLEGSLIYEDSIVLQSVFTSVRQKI
# T16 sequence (Q6PL18 980-1092 limits assumed): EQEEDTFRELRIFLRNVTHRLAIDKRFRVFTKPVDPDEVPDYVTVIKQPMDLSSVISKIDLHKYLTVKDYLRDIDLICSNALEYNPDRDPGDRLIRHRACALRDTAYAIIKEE
# T26 sequence (Q15059 306-415 limits assumed): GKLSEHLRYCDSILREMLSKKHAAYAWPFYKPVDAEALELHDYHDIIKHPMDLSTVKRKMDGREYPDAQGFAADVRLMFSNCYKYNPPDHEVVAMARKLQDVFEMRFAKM
# T25 sequence (Q9ULI0 951-1066 limits assumed): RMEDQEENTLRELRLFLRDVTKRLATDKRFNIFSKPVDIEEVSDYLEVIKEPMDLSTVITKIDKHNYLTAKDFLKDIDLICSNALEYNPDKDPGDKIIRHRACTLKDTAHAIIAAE
# T20 sequence (Q9UIF8 2060-2164 limits assumed): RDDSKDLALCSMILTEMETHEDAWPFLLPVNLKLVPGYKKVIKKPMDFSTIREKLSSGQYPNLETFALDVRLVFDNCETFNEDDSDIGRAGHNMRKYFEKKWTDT
# T10 sequence (Q92831 723-827 limits assumed): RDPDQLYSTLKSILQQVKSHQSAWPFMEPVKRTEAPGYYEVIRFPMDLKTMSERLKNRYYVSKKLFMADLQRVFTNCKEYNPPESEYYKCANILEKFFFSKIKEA
# T5 sequence (P51531 1378-1506 limits assumed): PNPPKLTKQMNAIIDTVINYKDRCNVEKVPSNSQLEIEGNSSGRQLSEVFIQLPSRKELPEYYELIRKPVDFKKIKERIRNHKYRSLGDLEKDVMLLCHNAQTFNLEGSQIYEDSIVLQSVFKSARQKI
# T21 sequence (P55201 628-732 limits assumed): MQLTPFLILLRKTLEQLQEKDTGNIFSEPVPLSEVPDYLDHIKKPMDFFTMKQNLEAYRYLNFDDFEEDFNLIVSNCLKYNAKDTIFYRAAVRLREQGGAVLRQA
# T22 sequence (Q9H8M2 136-240 limits assumed): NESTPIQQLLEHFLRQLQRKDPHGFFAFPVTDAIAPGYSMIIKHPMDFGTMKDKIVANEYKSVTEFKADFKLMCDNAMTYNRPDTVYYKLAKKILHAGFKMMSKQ
# T17 sequence (Q92793 1085-1192 limits assumed): as the sequence (Q09472 1049-1156 limits assumed) above, with S47N, I73V, Y93F, S98A counted along it
# T19 sequence (Q8IZX4 1517-1626 limits assumed): as the sequence (P21675 1519-1628 limits assumed) above, with V46M, M51V, V102I, L107I counted along it
# T28 sequence (P25440 344-453 limits assumed): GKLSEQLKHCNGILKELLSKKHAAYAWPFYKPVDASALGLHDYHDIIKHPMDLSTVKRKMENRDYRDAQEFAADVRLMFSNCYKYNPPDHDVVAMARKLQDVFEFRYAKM
# T29 sequence (Q92830 728-832 limits assumed): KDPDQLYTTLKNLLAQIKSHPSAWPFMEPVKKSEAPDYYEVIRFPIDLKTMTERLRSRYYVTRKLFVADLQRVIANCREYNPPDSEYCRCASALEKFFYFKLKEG
# T2 sequence (Q9NPI1 131-235 limits assumed): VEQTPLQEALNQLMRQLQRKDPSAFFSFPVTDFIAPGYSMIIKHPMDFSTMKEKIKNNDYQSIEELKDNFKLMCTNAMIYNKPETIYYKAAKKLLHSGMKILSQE
# T9 sequence (O15164 824-1006 limits assumed): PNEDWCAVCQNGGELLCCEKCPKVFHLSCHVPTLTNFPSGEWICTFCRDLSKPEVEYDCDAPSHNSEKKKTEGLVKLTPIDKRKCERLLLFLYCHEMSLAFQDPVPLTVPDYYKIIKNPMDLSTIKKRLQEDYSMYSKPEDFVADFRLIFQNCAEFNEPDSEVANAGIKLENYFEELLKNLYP
# T1 sequence (P25440 74-180 limits assumed): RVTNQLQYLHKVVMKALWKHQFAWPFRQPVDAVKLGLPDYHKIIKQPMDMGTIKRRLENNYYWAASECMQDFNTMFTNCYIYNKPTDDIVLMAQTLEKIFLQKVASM
# T8 sequence (Q9NSI6 1313-1418 limits assumed): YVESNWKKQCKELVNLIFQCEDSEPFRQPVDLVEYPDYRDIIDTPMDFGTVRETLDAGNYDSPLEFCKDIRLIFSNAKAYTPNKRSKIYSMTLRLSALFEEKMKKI
# T23 sequence (Q9UIF9 1793-1897 limits assumed): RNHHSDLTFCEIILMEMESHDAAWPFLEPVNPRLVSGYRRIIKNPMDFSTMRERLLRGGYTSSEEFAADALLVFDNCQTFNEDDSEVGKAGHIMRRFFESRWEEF
compound,measurement,setting,value
COc1cc(-c2cn(C)c(=O)c3cc(C(=N)NC4CCS(=O)(=O)CC4)sc23)ccc1OCC(=O)NCCCCCCCCNc1cccc2c1CN(C1CCC(=O)NC1=O)C2=O (stereo not drawn) [Compound I-17],% Ctrl @ 1 μM,BRD2(1),4 % Ctrl
same,% Ctrl @ 1 μM,BRD7,0 % Ctrl
same,% Ctrl @ 1 μM,SMARCA4,41 % Ctrl
same,% Ctrl @ 1 μM,BRD4(2),40 % Ctrl
same,% Ctrl @ 1 μM,SMARCA2,68 % Ctrl
same,% Ctrl @ 1 μM,BRD1,42 % Ctrl
same,% Ctrl @ 1 μM,TAF1(2),19 % Ctrl
same,% Ctrl @ 1 μM,WDR9(2),83 % Ctrl
same,% Ctrl @ 1 μM,"TRIM24 (PHD, Bromo.)",84 % Ctrl
same,% Ctrl @ 1 μM,PCAF,55 % Ctrl
same,% Ctrl @ 1 μM,PBRM1(2),68 % Ctrl
same,% Ctrl @ 1 μM,BRDT(1),18 % Ctrl
same,% Ctrl @ 1 μM,BRPF3,85 % Ctrl
same,% Ctrl @ 1 μM,EP300,37 % Ctrl
same,% Ctrl @ 1 μM,PBRM1(5),71 % Ctrl
same,% Ctrl @ 1 μM,ATAD2A,100 % Ctrl
same,% Ctrl @ 1 μM,CREBBP,10 % Ctrl
same,% Ctrl @ 1 μM,CECR2,0.15 % Ctrl
same,% Ctrl @ 1 μM,TAF1L(2),54 % Ctrl
same,% Ctrl @ 1 μM,BAZ^2B,74 % Ctrl
same,% Ctrl @ 1 μM,BRPF1,7.6 % Ctrl
same,% Ctrl @ 1 μM,BRD9,0.25 % Ctrl
same,% Ctrl @ 1 μM,BAZ^2A,42 % Ctrl
same,% Ctrl @ 1 μM,FALZ,60 % Ctrl
same,% Ctrl @ 1 μM,ATAD2B,60 % Ctrl
same,% Ctrl @ 1 μM,BRD3(2),19 % Ctrl
same,% Ctrl @ 1 μM,BRDT(2),57 % Ctrl
same,% Ctrl @ 1 μM,BRD2(2),43 % Ctrl
same,% Ctrl @ 1 μM,GCN5L2,62 % Ctrl
same,% Ctrl @ 1 μM,BRD4(1),1.8 % Ctrl
